According to ChEMBL document CHEMBL4837229 (Eur J Med Chem, 2021):

These compounds were tested against Neuraminidase (Influenza A virus (strain A/USSR/90/1977 H1N1), UniProt P03469, H274Y) (assay: Inhibition of Influenza A virus (A/California/04/2009 (H1N1)) Neuraminidase H274Y mutant using MUNANA as substrate preincubated for 5 to 15 mins followed by substrate addition and measured after 30 mins by fluorescence spectrophotometric method).

Question: `CCC(CC)O[C@@H]1C=C(C(=O)O)C[C@H](NC(N)=O)[C@H]1NC(C)=O` was tested. Which IC50 did it give?
Answer: 667 nM

Question: With `CCC(CC)O[C@@H]1C=C(C(=O)O)C[C@H](NC(=O)NNC)[C@H]1NC(C)=O` as the compound, how does the IC50 read?
Answer: 118 nM

Question: `CCCCNNC(=O)N[C@H]1CC(C(=O)O)=C[C@@H](OC(CC)CC)[C@@H]1NC(C)=O` was tested. Which IC50 did it give?
Answer: 147 nM

Question: Which IC50 does the source give for `CCC(CC)O[C@@H]1C=C(C(=O)O)C[C@H](NC(=O)NN)[C@H]1NC(C)=O` here?
Answer: 133 nM

Question: `CCCNNC(=O)N[C@H]1CC(C(=O)O)=C[C@@H](OC(CC)CC)[C@@H]1NC(C)=O` was tested. Which IC50 did it give?
Answer: 384 nM
